Laboratory results: patent US5741669A, “Insecticidally effective peptides” (FMC Corporation, priority 1995, dated 1998)

B1: NPS-373 (protein)
chain: MKLQLMICLVLLPCFFCEPDEICRARMTNKEFTYKSNVCNGCGDQVAACEAECFRNDVYTACHEAQKG

Tests used:
[1] = test system: fall armyworm, Spodoptera frugiperda (FAW); assay: Two-dose injection assay of toxins in FAW larvae; format: in vivo
Source text: (§1) The insects tested were last instar, laboratory reared larvae of the tobacco budworm, Heliothis virescens (TBW); the beet armyworm, Spodoptera exigua (BAW); the cabbage looper,Trichoplusia ni (CL); the corn earworm, Heliothis (Helicoverpa) zea (CEW); the fall armyworm, Spodoptera frugiperda (FAW); the soybean looper, Pseudoplusia includens (SBL); the European corn borer, Ostrinia nubilalis (ECB); and the diamondback moth, Plutella xylostella (DBM). Adult house flies, Musca domestica (HF) and adult Southern corn rootworm beetles, Diabrotica undecimpunctata (SRC) were also tested. The first six species (TBW, BAW, CL, CEW, FAW, and SBL) are in the family Noctuidae of the order Lepidoptera. O. nubilalis and P. xylostella are lepidopterans in the families Pyralidae and Plutellidae, respectively. […] Whole venom doses were calculated in terms of WVE. […] Doses of components from early fractionations were also calculated in terms of WVE; doses of purified toxins were calculated from ultraviolet absorbances at 280 nm. […]
(§2) Full dose-response assays were carried out in TBW (n=6), BAW (n=6), CL (n=6) and SCR (n=5). […] LD50 values were determined by log-probit analysis basic program for microcomputer. […] Because probit analysis requires two responses that are neither zero nor 100 percent, […] values in several cases had to be estimated rather than calculated directly. […]

[2] = test system: beet armyworm, Spodoptera exigua (BAW); assay: Injection bioassay of whole venom and purified toxins in BAW larvae; format: in vivo; conditions: S. exigua (BAW), estimate based on 50% mortality at this dose, all other responses 0% or 100%
Source text: as §1, §2

[3] = test system: Southern corn rootworm beetles, Diabrotica undecimpunctata (SCR); assay: Injection bioassay of toxins in adult Southern corn rootworm beetles; format: in vivo; conditions: D. undecimpunctata (SCR), NPS-326 value estimated (highest dose 100% mortality, rest none)
Source text: as §1, §2

[4] = test system: diamondback moth, Plutella xylostella (DBM); assay: Injection assay of toxin in DBM larvae; format: in vivo
Source text: as §1, §2

[5] = test system: male Swiss-Webster mice; assay: Mammalian toxicity test by injection in mice; format: in vivo; conditions: 30 μg, male Swiss-Webster mice (~30 gm)
Description: (§3) Injection of 30 μg of NPS-326 into the cerebral ventricles (n=3) or peritoneum (n=2) of male Swiss-Webster mice (~30 gm) had no effect. The effects of NPS-331 in mammalian systems were further tested by in vitro rat brain slice electrophysiology. […] The assay is capable of detecting a variety of effects on various mammalian ion channels and neurotransmitter receptors (Dunwiddie, in Electrophysiological Techniques in Pharmacology, Alan R. Liss, Inc., New York (1986), pp. 65-90).

[6] = test system: cabbage looper, Trichoplusia ni (CL); assay: Injection bioassay of whole venom and purified toxins in CL larvae; format: in vivo; conditions: T. ni (CL), log-probit analysis
Source text: as §1, §2

[7] = test system: tobacco budworm, Heliothis virescens (TBW); assay: Injection bioassay of whole venom and purified toxins in TBW larvae; format: in vivo; conditions: for LD50: H. virescens (TBW), log-probit analysis
Source text: The insects tested were last instar, laboratory reared larvae of the tobacco budworm, Heliothis virescens (TBW); the beet armyworm, Spodoptera exigua (BAW); the cabbage looper,Trichoplusia ni (CL); the corn earworm, Heliothis (Helicoverpa) zea (CEW); the fall armyworm, Spodoptera frugiperda (FAW); the soybean looper, Pseudoplusia includens (SBL); the European corn borer, Ostrinia nubilalis (ECB); and the diamondback moth, Plutella xylostella (DBM). Adult house flies, Musca domestica (HF) and adult Southern corn rootworm beetles, Diabrotica undecimpunctata (SRC) were also tested. The first six species (TBW, BAW, CL, CEW, FAW, and SBL) are in the family Noctuidae of the order Lepidoptera. O. nubilalis and P. xylostella are lepidopterans in the families Pyralidae and Plutellidae, respectively. M. domestica and D. undecimpunctata are in the orders Diptera and Coleoptera, respectively. All species tested are important pests in crop production except M. domestica which is a nuisance pest in agricultural and urban settings. All samples, whether whole venom or venom fractions, were prepared in filter-sterilized physiological saline, pH 6.5. Samples were administered by injection into the hemocoel at or near the lateral midline of the fourth abdominal segment; the needle was inserted at a shallow angle to avoid injury to internal organs. Whole venom doses were calculated in terms of WVE. One WVE is the amount of any material which is normally present in one microliter of whole milked venom. Doses of components from early fractionations were also calculated in terms of WVE; doses of purified toxins were calculated from ultraviolet absorbances at 280 nm. Scopes, Anal. Biochem., 59:277 (1974). Control insects were given an equivalent volume of buffered saline solution.
Full dose-response assays were carried out in TBW (n=6), BAW (n=6), CL (n=6) and SCR (n=5). Other species were challenged with one or both toxins in a two-dose assay for purposes of estimating the toxins' activities in a variety of insects. LD50 values were determined by log-probit analysis basic program for microcomputer. Raymond, Set. Ent. med et Parasitol., 22:117 (1985). The insecticidal Tegenaria toxins generally have quite steep dose-response curves; frequently there is less than a 10-fold difference between a 100% lethal dose and a dose causing no mortality. Because probit analysis requires two responses that are neither zero nor 100 percent, […] values in several cases had to be estimated rather than calculated directly. In every case, however, there was an obvious and statistically significant dose response.

[8] = test system: European corn borer, Ostrinia nubilalis (ECB); assay: Two-dose injection assay of toxins in ECB larvae; format: in vivo
Source text: as §1, §2

[9] = test system: soybean looper, Pseudoplusia includens (SBL); assay: Two-dose injection assay of toxins in SBL larvae; format: in vivo
Source text: as §1, §2

[10] = test system: corn earworm, Heliothis (Helicoverpa) zea (CEW); assay: Two-dose injection assay of toxins in CEW larvae; format: in vivo
Source text: as §1, §2

[11] = test system: rat hippocampal preparation, the Schaffer collateral-CA 1 pyramidal cell synapse; assay: In vitro rat brain slice electrophysiology; format: cell-based; conditions: applied at 1 μm
Description: as §3

[12] = test system: house flies, Musca domestica (HF); assay: Injection bioassay of toxins in adult house flies; format: in vivo; conditions: M. domestica (HF), estimate from two-dose assay (100% and 30% mortality; control 10%)
Source text: as §1, §2

Molecule | estimated LD50 [1] [nmol/gm] | LD50 [2] [nmol/gm] | LD50 [3] [nmol/gm] | treated larvae developing tremors, spasms and convulsions ([4]; 1.1 nmol/gm, within 24 hours) [%] | estimated LD50 ([4]; DBM larvae) [nmol/gm] | effect of injection into the peritoneum ([5]; n=2) | effect of injection into the cerebral ventricles ([5]; n=3) | LD50 [6] [nmol/gm] | LD50 [7] [nmol/gm] | approximate LD50 ([7]; TBW, venom-derived toxin) [µg/g] | estimated LD50 [8] [nmol/gm] | estimated LD50 [9] [nmol/gm] | estimated LD50 [10] [nmol/gm] | effect on evoked synaptic responses [11] | LD50 [12] [nmol/gm] | treated larvae paralyzed ([7]; 7.7 μg/g, TBW, n=6) [%]
NPS-326 (EPDEICRARMTHKEFNYKSNVCNGCGDQVAACEAECFRNDVYTACHEAQK) | 5.3 | ~0.88 | ~2.0 | 90 | < 1.1 | no effect | no effect | 0.78 | 0.89 | ~5.7 | 1.1 | 1.55 | 0.8 |  |  | 
NPS-331 (EPDEICRARMTNKEFTYKSNVCNNCGDQVAACEAECFRNDVYTACHEAQK) | 1.84 | ~0.29 | 0.57 |  |  |  |  | 0.22 | 2.6 |  | 0.64 | 1.05 | 1 | without effect | ~0.7 | 
B1 |  |  |  |  |  |  |  |  |  |  |  |  |  |  |  | 50
